Results published in US20160067295A1, “WALNUT EXTRACTS FOR NUTRACEUTICAL APPLICATIONS” (priority 2009, published 2016).

Tests used:
[1] = target: human blood (acetyl) cholinesterase (Homo sapiens, UniProt P22303); settings: for inhibition of acetyl cholinesterase (in words): 1 mg Phosphatidylcholine per ml test solution, FIG. 4, FIG. 5; for % activity of AchE: remaining activity within 5 minutes of incubation; for % activity of AchE / % inhibited part of activity of AchE: 1 mg/ml test solution; for % inhibited part of activity of AchE: within 5 minutes of incubation
[2] = target: T1, Amyloid [A]β1-40 aggregates (Homo sapiens, UniProt P05067); assay: Defibrillization assay: dissolution of already formed amyloid Aβ-aggregates (Thioflavin T fluorescence); type: biochemical; settings: 12 mg PC/ml test assay for walnut extracts, 12 mg PC Soy or PS Soy/ml; FIG. 3
T1 construct: Amyloid [A] β1-40 (Sigma-Aldrich, A 1075); purchased Sigma-Aldrich A 1075
Experimental: In this example, the highest concentrations of the walnut extracts (12 mg PC/ml test assay for the walnut extracts, 12 mg PC Soy or PS Soy/ml) were evaluated for their ability to reverse an already formed aggregate of amyloid-β.
Defibrillization efficacy is indicative for treatment of Alzheimer disease.
Dissolution of amyloid Aβ-aggregates by ES2008-021 and ES2008-022-Defibrillization assay
In a further extension of the test system, the above samples were evaluated for their ability to reverse an already formed aggregate of amyloid-β. Defibrillization efficacy is indicative for curing of Alzheimer disease.
Dissolution of amyloid Aβ-aggregates was induced by incubation with walnut extract. At each concentration of walnut extract (0.625, 1.25, 2.5, 5.0 or 7.5 μl ES2008-022 or 0.625, 1.25, 2.5, 5.0 or 7.5 μl from a stock solution containing 125 mg ES2008-021/ml) three samples were incubated and evaluated. […]
After 3 days each sample is mixed with 2 μM ([…]) Thioflavin T and 950 μl glycine/NaOH buffer (50 mM glycine, pH=9.0). Fluorescence was measured at ex 435 nm/em 485 nm.
Subtract fluorescence intensity for the corresponding “reagent blank samples” from each “active sample”. Compare the resulting fluorescence intensity with the fluorescence intensity measured for the control sample. […]

Chain of human blood (acetyl) cholinesterase (P22303 32-617 isoform P22303-2 limits assumed): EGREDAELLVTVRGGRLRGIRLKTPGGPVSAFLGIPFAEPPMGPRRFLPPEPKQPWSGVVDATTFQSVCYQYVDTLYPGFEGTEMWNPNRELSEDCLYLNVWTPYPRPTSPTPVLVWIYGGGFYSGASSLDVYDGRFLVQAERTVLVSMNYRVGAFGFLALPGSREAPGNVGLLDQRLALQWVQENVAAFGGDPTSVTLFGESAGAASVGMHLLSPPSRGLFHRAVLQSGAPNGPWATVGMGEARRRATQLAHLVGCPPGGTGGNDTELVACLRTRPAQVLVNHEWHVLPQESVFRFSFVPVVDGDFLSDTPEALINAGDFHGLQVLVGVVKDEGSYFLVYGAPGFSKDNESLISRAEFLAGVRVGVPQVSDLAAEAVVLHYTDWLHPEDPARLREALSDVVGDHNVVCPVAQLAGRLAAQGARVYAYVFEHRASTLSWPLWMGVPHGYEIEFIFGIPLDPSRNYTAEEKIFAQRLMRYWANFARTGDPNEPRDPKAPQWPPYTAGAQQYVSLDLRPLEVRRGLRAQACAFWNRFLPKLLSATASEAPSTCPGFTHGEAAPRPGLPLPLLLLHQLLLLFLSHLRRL
T1 sequence (P05067 672-711 limits assumed): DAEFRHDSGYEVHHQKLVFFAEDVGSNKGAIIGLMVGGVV

Row | Substance | inhibition of acetyl cholinesterase (in words) [1] | % activity of AchE [1] | % inhibited part of activity of AchE [1] | defibrillization efficacy (in words) [2]
1 | phosphatidylserine [PS Soy Bean] | almost inactive | 94.0% | 6.0% | less potent in defibrillization
2 | phosphatidylcholine [PC Soy Bean] | almost inactive | 88.2% | 11.8% | less potent in defibrillization
